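Five concentrations, 48 hours, 96-well plates. The concentration for full growth arrest is given as TGI.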
Assays:
Assay in all cases: DTP human tumour cell line panel, 48 h
NCI-H460 lung = system: NCI-H460 lung
UACC-62 melanoma = system: UACC-62 melanoma
HCT-15 colon = system: HCT-15 colon
SN12C renal = system: SN12C renal
HCT-116 colon = system: HCT-116 colon
SK-MEL-5 melanoma = system: SK-MEL-5 melanoma
CAKI-1 renal = system: CAKI-1 renal
MDA-N = system: MDA-N
HS 578T breast = system: HS 578T breast
OVCAR-3 ovarian = system: OVCAR-3 ovarian
SNB-75 CNS = system: SNB-75 CNS
SK-OV-3 ovarian = system: SK-OV-3 ovarian
MCF7 breast = system: MCF7 breast
K-562 leukemia = system: K-562 leukemia
SK-MEL-2 melanoma = system: SK-MEL-2 melanoma
OVCAR-8 ovarian = system: OVCAR-8 ovarian
SW-620 colon = system: SW-620 colon
ACHN renal = system: ACHN renal
HOP-62 NSCLC = system: HOP-62 NSCLC
NCI-H23 lung = system: NCI-H23 lung
HT29 colon = system: HT29 colon
SF-539 CNS = system: SF-539 CNS
COLO 205 colon = system: COLO 205 colon
A549 NSCLC = system: A549 NSCLC
DU-145 prostate = system: DU-145 prostate
BT-549 breast = system: BT-549 breast
U251 CNS = system: U251 CNS
T-47D breast = system: T-47D breast
SF-295 CNS = system: SF-295 CNS
NCI-H522 lung = system: NCI-H522 lung
CCRF-CEM leukemia = system: CCRF-CEM leukemia
SNB-19 CNS = system: SNB-19 CNS
IGROV1 ovarian = system: IGROV1 ovarian
MALME-3M melanoma = system: MALME-3M melanoma
NCI-H226 lung = system: NCI-H226 lung
HL-60(TB) leukemia = system: HL-60(TB) leukemia
MDA-MB-435 = system: MDA-MB-435
SK-MEL-28 melanoma = system: SK-MEL-28 melanoma
RPMI-8226 leukemia = system: RPMI-8226 leukemia
NCI/ADR-RES ovarian = system: NCI/ADR-RES ovarian
HCC-2998 colon = system: HCC-2998 colon
EKVX NSCLC = system: EKVX NSCLC
OVCAR-4 ovarian = system: OVCAR-4 ovarian
LOX IMVI melanoma = system: LOX IMVI melanoma
TK-10 renal = system: TK-10 renal
786-0 renal = system: 786-0 renal
RXF 393 renal = system: RXF 393 renal
MOLT-4 leukemia = system: MOLT-4 leukemia
MDA-MB-231 breast = system: MDA-MB-231 breast
UACC-257 melanoma = system: UACC-257 melanoma
SF-268 CNS = system: SF-268 CNS
KM12 colon = system: KM12 colon
UO-31 renal = system: UO-31 renal
PC-3 prostate = system: PC-3 prostate
OVCAR-5 ovarian = system: OVCAR-5 ovarian
HOP-92 NSCLC = system: HOP-92 NSCLC
A498 renal = system: A498 renal
M14 melanoma = system: M14 melanoma

Question: Which results are given for `O=[N+]([O-])c1ccc(N2N=C(c3ccc4ccccc4c3O)CC2c2ccc(Cl)cc2Cl)c([N+](=O)[O-])c1` (stereo not given)?
Answer: TGI (NCI-H460 lung): > 100 µM; TGI (UACC-62 melanoma): > 100 µM; TGI (HCT-15 colon): > 100 µM; TGI (SN12C renal): > 100 µM; TGI (HCT-116 colon): > 100 µM; TGI (SK-MEL-5 melanoma): > 100 µM; TGI (CAKI-1 renal): > 100 µM; TGI (MDA-N): > 100 µM; TGI (HS 578T breast): 95.3 µM; TGI (OVCAR-3 ovarian): > 100 µM; TGI (SNB-75 CNS): > 100 µM; TGI (SK-OV-3 ovarian): > 100 µM; TGI (MCF7 breast): > 100 µM; TGI (K-562 leukemia): 35.5 µM; TGI (SK-MEL-2 melanoma): > 100 µM; TGI (OVCAR-8 ovarian): > 100 µM; TGI (SW-620 colon): > 100 µM; TGI (ACHN renal): > 100 µM; TGI (HOP-62 NSCLC): > 100 µM; TGI (NCI-H23 lung): > 100 µM; TGI (HT29 colon): > 100 µM; TGI (SF-539 CNS): 70.6 µM; TGI (COLO 205 colon): > 100 µM; TGI (A549 NSCLC): > 100 µM; TGI (DU-145 prostate): > 100 µM; TGI (BT-549 breast): > 100 µM; TGI (U251 CNS): > 100 µM; TGI (T-47D breast): > 100 µM; TGI (SF-295 CNS): > 100 µM; TGI (NCI-H522 lung): > 100 µM; TGI (CCRF-CEM leukemia): 35.5 µM; TGI (SNB-19 CNS): > 100 µM; TGI (IGROV1 ovarian): > 100 µM; TGI (MALME-3M melanoma): > 100 µM; TGI (NCI-H226 lung): > 100 µM; TGI (HL-60(TB) leukemia): 77.4 µM; TGI (MDA-MB-435): > 100 µM; TGI (SK-MEL-28 melanoma): > 100 µM; TGI (RPMI-8226 leukemia): 41.4 µM; TGI (NCI/ADR-RES ovarian): > 100 µM; TGI (HCC-2998 colon): > 100 µM; TGI (EKVX NSCLC): > 100 µM; TGI (OVCAR-4 ovarian): > 100 µM; TGI (LOX IMVI melanoma): > 100 µM; TGI (TK-10 renal): > 100 µM; TGI (786-0 renal): > 100 µM; TGI (RXF 393 renal): > 100 µM; TGI (MOLT-4 leukemia): 38 µM; TGI (MDA-MB-231 breast): > 100 µM; TGI (UACC-257 melanoma): > 100 µM; TGI (SF-268 CNS): > 100 µM; TGI (KM12 colon): > 100 µM; TGI (UO-31 renal): > 100 µM; TGI (PC-3 prostate): > 100 µM; TGI (OVCAR-5 ovarian): > 100 µM

Question: What does the source list for `O=P1(O)c2ccccc2CS(=O)(=O)Cc2ccccc21`?
Answer: TGI (NCI-H460 lung): > 100 µM; TGI (UACC-62 melanoma): > 100 µM; TGI (HCT-15 colon): > 100 µM; TGI (SN12C renal): > 100 µM; TGI (HCT-116 colon): > 100 µM; TGI (SK-MEL-5 melanoma): > 100 µM; TGI (CAKI-1 renal): > 100 µM; TGI (MDA-N): > 100 µM; TGI (HS 578T breast): > 100 µM; TGI (OVCAR-3 ovarian): > 100 µM; TGI (SK-OV-3 ovarian): > 100 µM; TGI (MCF7 breast): > 100 µM; TGI (HOP-92 NSCLC): > 100 µM; TGI (K-562 leukemia): > 100 µM; TGI (SK-MEL-2 melanoma): > 100 µM; TGI (OVCAR-8 ovarian): > 100 µM; TGI (SW-620 colon): > 100 µM; TGI (ACHN renal): > 100 µM; TGI (HOP-62 NSCLC): > 100 µM; TGI (A498 renal): > 100 µM; TGI (NCI-H23 lung): > 100 µM; TGI (HT29 colon): > 100 µM; TGI (SF-539 CNS): > 100 µM; TGI (COLO 205 colon): > 100 µM; TGI (A549 NSCLC): > 100 µM; TGI (DU-145 prostate): > 100 µM; TGI (BT-549 breast): > 100 µM; TGI (U251 CNS): > 100 µM; TGI (T-47D breast): > 100 µM; TGI (SF-295 CNS): > 100 µM; TGI (NCI-H522 lung): > 100 µM; TGI (CCRF-CEM leukemia): > 100 µM; TGI (SNB-19 CNS): > 100 µM; TGI (IGROV1 ovarian): > 100 µM; TGI (NCI-H226 lung): > 100 µM; TGI (HL-60(TB) leukemia): > 100 µM; TGI (MDA-MB-435): > 100 µM; TGI (SK-MEL-28 melanoma): > 100 µM; TGI (M14 melanoma): > 100 µM; TGI (NCI/ADR-RES ovarian): > 100 µM; TGI (HCC-2998 colon): > 100 µM; TGI (EKVX NSCLC): > 100 µM; TGI (OVCAR-4 ovarian): > 100 µM; TGI (LOX IMVI melanoma): > 100 µM; TGI (TK-10 renal): > 100 µM; TGI (786-0 renal): > 100 µM; TGI (RXF 393 renal): > 100 µM; TGI (MOLT-4 leukemia): > 100 µM; TGI (MDA-MB-231 breast): > 100 µM; TGI (UACC-257 melanoma): > 100 µM; TGI (SF-268 CNS): > 100 µM; TGI (KM12 colon): > 100 µM; TGI (UO-31 renal): > 100 µM; TGI (PC-3 prostate): > 100 µM; TGI (OVCAR-5 ovarian): > 100 µM

Source: PubChem BioAssay (NCI)
